# What was measured:
# Trypanosoma cruzi = experiment: Inhibition of Trypanosoma cruzi; type: functional, organism-based
# Leishmania donovani = experiment: Inhibition of Leishmania donovani; type: functional, organism-based
# [1] = Cytotoxicity against KB cells; type: cell-based; conditions: human, read-out: ED50 (the source's name)
# [2] = Therapeutic index, ratio of IC50 for Leishmania donovani to ED50 for KB cells; type: cell-based; conditions: human, read-out: TI
# [3] = Therapeutic index, ratio of IC50 for Trypanosoma cruzi to ED50 for KB cells; type: cell-based; conditions: human, read-out: TI
Structure (SMILES),IC50 (Trypanosoma cruzi) [µM],IC50 (Leishmania donovani) [µM],CC50 [1] [µg/mL],selectivity ratio [2],selectivity ratio [3]
COC(=O)N1[C@@H]2C=C[C@@](OC)(C(=O)c3c2cc(OC)c(OC)c3OC)N1C(=O)OC,> 71,> 71,> 300,,
CCOc1c(OC)c(OC)cc2c1C(=O)[C@]1(OC)C=C[C@H]2N(C(=O)OC)N1C(=O)OC,> 68.8,> 68.8,> 300,,
COC(=O)N1[C@@H]2C=C[C@@](OC)(C(=O)c3c2cc(OC)c(OC)c3OCc2ccccc2)N1C(=O)OC,> 60.2,> 60.2,> 300,,
CCOC(=O)N1[C@@H]2C=C[C@@](OC)(C(=O)c3c2cc(OC)c(OC)c3OCC)N1C(=O)OCC,> 64.6,> 64.6,> 300,,
COC(=O)N1[C@@H]2C=C[C@@](OC)(C(=O)c3c2cc(OC)c(OC)c3OCc2ccc(F)cc2)N1C(=O)OC,> 58.1,> 58.1,56.6,,
COC(=O)N1[C@@H]2C=C[C@@](OC)(C(=O)c3c2cc(OC)c(OC)c3OCc2ccccc2F)N1C(=O)OC,> 58.1,> 58.1,137,,
CCCOc1c(OC)c(OC)cc2c1C(=O)[C@]1(OC)C=C[C@H]2N(C(=O)OCC)N1C(=O)OCC,> 62.7,> 62.7,> 300,,
CCOC(=O)N1[C@@H]2C=C[C@@](OC)(C(=O)c3c2cc(OC)c(OC)c3OCc2ccccc2)N1C(=O)OCC,54.1,> 57,215,,
CCOC(=O)N1[C@@H]2C=C[C@@](OC)(C(=O)c3c2cc(OC)c(OC)c3OCc2ccc(Cl)cc2)N1C(=O)OCC,83.8,> 53.5,99.9,,
CCOC(=O)N1[C@@H]2C=C[C@@](OC)(C(=O)c3c2cc(OC)c(OC)c3OCc2ccc(OC)cc2)N1C(=O)OCC,> 53.9,9.9,63.1,,
COc1cc2c(c(OC)c1OC)C(=O)[C@]1(OC)C=C[C@H]2N(C(=O)OC(C)C)N1C(=O)OC(C)C,> 62.7,> 62.7,> 300,,
CCOc1c(OC)c(OC)cc2c1C(=O)[C@]1(OC)C=C[C@H]2N(C(=O)OC(C)C)N1C(=O)OC(C)C,> 60.9,> 60.9,> 300,,
CCOC(=O)N1[C@@H]2C=C[C@@](OC)(C(=O)c3c2cc(OC)c(OC)c3OCc2ccccc2F)N1C(=O)OCC,54.1,8.6,99.7,21.3,
COC(=O)N1[C@@H]2C=C[C@@](OC)(C(=O)c3c2cc(OC)c(OC)c3OCc2ccc(OC)cc2)N1C(=O)OC,> 56.8,> 56.8,> 300,,
COC(=O)N1[C@@H]2C=C[C@@](OC)(C(=O)c3c2cc(OC)c(OC)c3O)N1C(=O)OC,> 73.5,> 73.5,> 300,,
CCCOc1c(OC)c(OC)cc2c1C(=O)[C@]1(OC)C=C[C@H]2N(C(=O)OC)N1C(=O)OC,> 66.6,> 66.6,> 300,,
CCCCOc1c(OC)c(OC)cc2c1C(=O)[C@]1(OC)C=C[C@H]2N(C(=O)OC)N1C(=O)OC,57.4,> 64.6,> 300,,
COc1cc2c(c(O)c1OC)C(=O)[C@]1(OC)C=C[C@H]2N(C(=O)OC(C)C)N1C(=O)OC(C)C,> 64.6,> 64.6,> 300,,
CCCCOc1c(OC)c(OC)cc2c1C(=O)[C@]1(OC)C=C[C@H]2N(C(=O)OCC)N1C(=O)OCC,> 60.9,> 60.9,76,,
O=C(Cn1ccnc1[N+](=O)[O-])NCc1ccccc1 [BENZNIDAZOLE],8.7,,,,

# Further lines, with some results ahead:
IC50 (Trypanosoma cruzi) [µM],IC50 (Leishmania donovani) [µM],Structure (SMILES),CC50 [1] [µg/mL],selectivity ratio [2],selectivity ratio [3]
18,> 52.4,COc1cc2c(c(OCc3ccc(F)cc3)c1OC)C(=O)[C@]1(OC)C=C[C@H]2N(C(=O)OC(C)C)N1C(=O)OC(C)C,> 300,,
51.3,> 55.1,CCOC(=O)N1[C@@H]2C=C[C@@](OC)(C(=O)c3c2cc(OC)c(OC)c3OCc2ccc(F)cc2)N1C(=O)OCC,51.8,,
12.1,> 54.1,COc1cc2c(c(OCc3ccccc3)c1OC)C(=O)[C@]1(OC)C=C[C@H]2N(C(=O)OC(C)C)N1C(=O)OC(C)C,94,,
9.5,> 52.4,COc1cc2c(c(OCc3ccccc3F)c1OC)C(=O)[C@]1(OC)C=C[C@H]2N(C(=O)OC(C)C)N1C(=O)OC(C)C,109,,
< 1.9,47.4,COc1cc2c(c(OCc3ccc(Cl)cc3)c1OC)C(=O)[C@]1(OC)C=C[C@H]2N(C(=O)OC(C)C)N1C(=O)OC(C)C,42,,37.6
9.8,> 51.3,COc1ccc(COc2c(OC)c(OC)cc3c2C(=O)[C@]2(OC)C=C[C@H]3N(C(=O)OC(C)C)N2C(=O)OC(C)C)cc1,47.9,,
50.9,> 56.3,COC(=O)N1[C@@H]2C=C[C@@](OC)(C(=O)c3c2cc(OC)c(OC)c3OCc2ccc(Cl)cc2)N1C(=O)OC,55.9,,
42.3,> 59.2,CCCOc1c(OC)c(OC)cc2c1C(=O)[C@]1(OC)C=C[C@H]2N(C(=O)OC(C)C)N1C(=O)OC(C)C,299,,
23.4,> 57.6,CCCCOc1c(OC)c(OC)cc2c1C(=O)[C@]1(OC)C=C[C@H]2N(C(=O)OC(C)C)N1C(=O)OC(C)C,22.1,,
